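Results reflect a 48-hour exposure of cells in 96-well plates to compound at five concentrations. GI50: concentration for 50% inhibition of growth.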 Activity calls are given as the source filed them. Cut-off read from the data, not from the text of the source: active = GI50 up to about 1.1 µM and inactive = higher.
Key:
Assay in all cases: growth of human tumour cells (NCI), 48 h
[1] = tested on: OVCAR-5
[2] = tested on: KM12
[3] = tested on: SR
[4] = tested on: SK-MEL-28
[5] = tested on: Malme-3M
[6] = tested on: MCF7
[7] = tested on: PC-3
[8] = tested on: BT-549
[9] = tested on: M14
[10] = tested on: HOP-92
[11] = tested on: TK-10
[12] = tested on: U-251
[13] = tested on: SK-OV-3
[14] = tested on: MDA-N
[15] = tested on: SNB-75
[16] = tested on: UACC-62
[17] = tested on: UO-31
[18] = tested on: ACHN
[19] = tested on: HCC 2998
[20] = tested on: CAKI-1

Measured: GI50

CC(=O)/C(=C\I)c1ccccc1
inactive: [1] 1.49 µM | [2] 3.57 µM | [3] 1.49 µM | [4] 3.18 µM | [5] 1.67 µM | [6] 1.8 µM | [7] 2.51 µM | [8] 1.83 µM | [9] 2.31 µM | [10] 2.45 µM | [11] 13.9 µM | [12] 2.26 µM | [13] 13.6 µM | [14] 1.62 µM | [15] 3.94 µM | [16] 1.77 µM | [17] 3.85 µM

O=C(O)Cc1c(-c2ccc([N+](=O)[O-])cc2)c(=O)oc2cc(O)ccc12
inactive: [1] 30.1 µM | [18] 24.2 µM | [2] 26.9 µM | [3] 25.9 µM | [4] 38 µM | [5] 24.1 µM | [6] 32.5 µM | [7] 28.1 µM | [8] 23.8 µM | [9] 32.1 µM | [19] 25.1 µM | [11] 33.2 µM | [12] 15.7 µM | [13] 35.2 µM | [14] 30.4 µM | [16] 38.9 µM | [20] > 10 µM | [17] 23.4 µM

CCOP(=O)(OCC)OC1CC(n2cnc3c(N(CC)CC)ncnc32)OC1CO[Si](C)(C)C(C)(C)C (centres undefined)
inactive: [1] 19 µM | [18] 15.3 µM | [2] 19.7 µM | [3] 31.3 µM | [4] 18.5 µM | [5] 22.4 µM | [6] 21.8 µM | [7] 12.2 µM | [8] 16.1 µM | [9] 18.8 µM | [19] 23.2 µM | [11] 18.3 µM | [12] 15.1 µM | [13] 17.5 µM | [14] 18 µM | [15] 11.1 µM | [16] 14.8 µM | [20] 17.5 µM | [17] 19.1 µM

Clc1ccc(Nc2nnc(CNc3ccc(-c4nnc(Nc5ccc(Cl)cc5)o4)cc3)o2)cc1
inactive: [1] 19.6 µM | [18] 17.1 µM | [2] 8.36 µM | [4] 17.2 µM | [5] 14.7 µM | [6] 10.9 µM | [7] 11.8 µM | [8] 17.7 µM | [9] 17.1 µM | [19] 5.14 µM | [10] 23.9 µM | [11] 14 µM | [12] 8.71 µM | [13] 22.6 µM | [14] 14.3 µM | [15] 24.8 µM | [16] 13.6 µM | [20] 17.9 µM | [17] 14.5 µM

Cc1[nH]c2ccccc2c1/C=N/c1ccc(Oc2ccccc2)cc1
inactive: [1] 16.3 µM | [18] 16.3 µM | [2] 16.2 µM | [3] 19.1 µM | [4] 18.8 µM | [5] 19 µM | [6] 19.1 µM | [7] 13.8 µM | [8] 14.8 µM | [9] 16.6 µM | [10] 12.7 µM | [11] 16.4 µM | [12] 15.3 µM | [13] 17.5 µM | [14] 17.2 µM | [15] 13 µM | [16] 17.9 µM | [20] 15.9 µM | [17] 12 µM

CCOn1c(C2(CC3CCN(C(=O)c4ccccc4)CC3)OCCO2)cc2ccccc21
inactive: [1] 19 µM | [18] 14.6 µM | [2] 15.8 µM | [3] 6.27 µM | [4] 13.2 µM | [5] 18.2 µM | [6] 14.8 µM | [7] 12.6 µM | [8] 19.4 µM | [9] 16.7 µM | [10] 10.9 µM | [11] 12.2 µM | [12] 16.3 µM | [13] 19.3 µM | [14] 16.5 µM | [15] 16.5 µM | [16] 11 µM | [20] 15.4 µM | [17] 14 µM

O=S(=O)(O)c1ccc(-c2nnc(-c3ccccn3)nc2-c2ccc(S(=O)(=O)O)o2)o1
inactive: [1] > 100 µM | [18] > 100 µM | [2] > 100 µM | [3] > 100 µM | [4] > 100 µM | [5] > 100 µM | [6] > 100 µM | [7] > 100 µM | [8] > 100 µM | [9] > 100 µM | [10] > 100 µM | [12] > 100 µM | [13] > 100 µM | [14] > 100 µM | [15] > 100 µM | [16] > 100 µM | [20] > 100 µM | [17] > 100 µM

Source: ChEMBL document CHEMBL1201862, “PubChem BioAssay data set” (2004)
